Measured values taken from patent US10766888B1, “HMOX1 inducers” (Mitobridge Inc., priority 2019, dated 2020).
Structures can show the parent of a compound that is named as a salt. Where two headings read alike, the source gives them in different places.

Experiments:
hERG channel = hERG channel (Homo sapiens, UniProt Q12809); experiment: hERG manual patch clamp assay; type: cell-based; conditions: HEK 293 cells stably expressing hERG channel, pH 7.35, 10 μM compound
Experimental: Cell Lines and Cell Culture
HEK 293 cell line stably expressing hERG channel (Cat # K1236) was purchased from Invitrogen. The cells were cultured in 85% DMEM, 10% dialyzed FBS, 0.1 mM NEAA, 25 mM HEPES, 100 U/mL Penicillin-Streptomycin and 5 μg/mL Blasticidin and 400 μg/mL Geneticin. Cells were split using TrypLE™ Express about three times a week, and maintained between ˜40% to ˜80% confluence. Before the assay, the cells were transferred onto the coverslips at 5×10^5 cells/per 6 cm cell culture dish and induced with doxycycline at 1 μg/mL for 48 hours.
• 1) External solution (in mM): 132 NaCl, 4 KCl, 3 CaCl2, 0.5 MgCl2, 11.1 glucose, and 10 HEPES (pH adjusted to 7.35 with NaOH) • 2) Internal solution (in mM): 140 KCl, 2 MgCl2, 10 EGTA, 10 HEPES and 5 MgATP (pH adjusted to 7.35 with KOH) • 3) hERG currents were tested in presence of 10 μM compound concentration with final concentration of DMSO of 0.1%. Experimental Procedure • 1) Removed the coverslip from the cell culture dish and placed it on the microscope stage in bath chamber. • 2) Located a desirable cell using the 10× objective. Located the tip of the electrode under the microscope using the 10× objective by focusing above the plane of the cells. Once the tip was in focus, advanced the electrode downwards towards the cell using the coarse controls of the manipulator, while simultaneously moving the objective to keep the tip in focus. • 3) When directly over the cell, switched to the 40× objective and used the fine controls of the manipulator to approach the surface of the cell in small steps. • 4) Applied gentle suction through the side-port of the electrode holder to form a gigaohm seal. • 5) Used the Cfast to remove the capacity current that was in coincidence with the voltage step. Obtained the whole cell configuration by applying repetitive, brief, strong suction until the membrane patch ruptured. • 6) Set membrane potential to −60 mV at this point to ensure that hERG channels were not • open. The spikes of capacity current should then be cancelled using the Cslow on the amplifier. 7) Set holding potential to −90 mV for 500 ms; recorded current at 50 kHz and filtered at 10 kHz. Leaking current was tested at −80 mV for 500 ms. • 8) The hERG current was elicited by depolarizing at +30 mV for 4.8 seconds and then the voltage was taken back to −50 mV for 5.2 seconds to remove the inactivation and observe the deactivating tail current. The maximum amount of tail current size was used to determine hERG current amplitude. • 9) Recorded current for 120 seconds to assess the current stability. Only stable cells with recording parameters above threshold were applied for the compound administrations. • 10) Firstly vehicle control was applied to the cells to establish the baseline. […] In order to ensure the good performance of cultured cells and operations, the positive control, Dofetilide, with 5 dose concentration was also used to test the same batch of cells. Data Analysis
The following criteria were used to determine data acceptability. • 1) Initial seal resistance >1 GΩ; • 2) Leak currents <50% of the control peak tail currents at any time; • 3) The peak tail amplitude >250 pA; • 4) Membrane resistance Rm>500 MΩ; • 5) Access resistance (Ra)<10 MΩ; • 6) Apparent run-down of peak current <2.5% per min.
Data that met the above criteria for hERG current quality were further analyzed as the following steps. • 1) Percent hERG current inhibition was calculated using the following equation. • Note: PatchMaster or Clampfit software was used to extract the peak current from the original data.
[formula] • 2) The dose response curve of test compounds was plotted with percentage of hERG current inhibition against the concentration of test compounds using Graphpad Prism 6.0, and fit to a sigmoid dose-response curve with a variable slope.

[1] = tested on: Human Heme Oxygenase-1 (HMOX-1); experiment: ELISA assay to measure human heme oxygenase-1 (HMOX-1) in HepG2 lysate; type: cell-based
How it was run: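 HO-1 protein levels were read as fold change over DMSO-treated cells, with EC50 derived from these values. Quantitation used a chemiluminescent streptavidin-HRP capture ELISA, calibrated with an HO-1 standard series starting at 20 ng/ml, run at 20 °C. Samples were HepG2 lysates made with Triton X100/EDTA buffer and diluted 1:20.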

[2] = PK study: plasma and brain levels in mice; type: in vivo, C57BL/6 mice; conditions: mouse, plasma, measured in a previous study
[3] = PD study: compound concentration in mouse liver; type: in vivo, C57BL/6 mice; conditions: male, C57BL/6, mouse, 50 mg/kg, 50 mpk oral
Experimental: 9-10 week old male C57BL/6 mice were dosed orally with 50 mg/kg of vehicle or compound formulated in 5% w/v tween 80 and 0.5% methyl cellulose. At indicated time points (3 and 6 hours or or 4 and 8 hours post-dosing as shown in the results below), whole blood was collected, animal was sacrificed and liver was collected. Blood samples were transferred to vials containing 4 μL of 10% w/v EDTA, centrifuged at 6000 rpm for 8 in below 10° C. to obtain plasma. Samples were frozen and later processed for HMOX1 protein levels as indicated below: […]

FTH1 = FTH1 mRNA expression in HepG2 cells (Nanostring); type: cell-based, human; conditions: 24 hours treatment
Experimental: RNA Isolation and Quantification of Gene Expression
HepG2 cells were seeded at 250 k/well in 12-well tissue culture plates coated with collagen (collagen I, rat tail (thin plate coating); ENZO Life Sciences) for approximately 24 hours. The seeded cells were then treated with dose titration of the compound of Example 17 or dimethyl fumarate (DMF) (a Nrf2 activator; Fisher Scientific) via media change, with biological triplicates performed for each treatment. After approximately 24 hours of treatment, cells were visually inspected to confirm that no toxicity occurred with compound treatment. The treated cells were washed with PBS, aspirated, parafilmed and frozen at −80° C. prior to RNA isolation. RNA was isolated using Machery-Nagel isolation kit (NucleoSpin® RNA: catalog 740955.250) and then quantitated using ThermoFisher Nanodrop.
RNA was diluted for Nanostring gene expression analysis. The diluted RNA at an input of 200 ng RNA was run on a Nanostring instrument, which was supported with nCounter® SPRINT Profiler System and nSolver4.0 Software, nCounter® SPRINT Cartridge, nCounter® SPRINT Reagent Pack, and nCounter® SPRINT Hybridization Buffer. Analysis was done manually using raw data obtained from nSolver4.0 Software. CLTC, POLR2A, RPL27 and TBP were used as reference genes for normalization. Data was graphed as fold change compared to DMSO treatment. […]

hERG channel, sequence (Q12809 whole entry): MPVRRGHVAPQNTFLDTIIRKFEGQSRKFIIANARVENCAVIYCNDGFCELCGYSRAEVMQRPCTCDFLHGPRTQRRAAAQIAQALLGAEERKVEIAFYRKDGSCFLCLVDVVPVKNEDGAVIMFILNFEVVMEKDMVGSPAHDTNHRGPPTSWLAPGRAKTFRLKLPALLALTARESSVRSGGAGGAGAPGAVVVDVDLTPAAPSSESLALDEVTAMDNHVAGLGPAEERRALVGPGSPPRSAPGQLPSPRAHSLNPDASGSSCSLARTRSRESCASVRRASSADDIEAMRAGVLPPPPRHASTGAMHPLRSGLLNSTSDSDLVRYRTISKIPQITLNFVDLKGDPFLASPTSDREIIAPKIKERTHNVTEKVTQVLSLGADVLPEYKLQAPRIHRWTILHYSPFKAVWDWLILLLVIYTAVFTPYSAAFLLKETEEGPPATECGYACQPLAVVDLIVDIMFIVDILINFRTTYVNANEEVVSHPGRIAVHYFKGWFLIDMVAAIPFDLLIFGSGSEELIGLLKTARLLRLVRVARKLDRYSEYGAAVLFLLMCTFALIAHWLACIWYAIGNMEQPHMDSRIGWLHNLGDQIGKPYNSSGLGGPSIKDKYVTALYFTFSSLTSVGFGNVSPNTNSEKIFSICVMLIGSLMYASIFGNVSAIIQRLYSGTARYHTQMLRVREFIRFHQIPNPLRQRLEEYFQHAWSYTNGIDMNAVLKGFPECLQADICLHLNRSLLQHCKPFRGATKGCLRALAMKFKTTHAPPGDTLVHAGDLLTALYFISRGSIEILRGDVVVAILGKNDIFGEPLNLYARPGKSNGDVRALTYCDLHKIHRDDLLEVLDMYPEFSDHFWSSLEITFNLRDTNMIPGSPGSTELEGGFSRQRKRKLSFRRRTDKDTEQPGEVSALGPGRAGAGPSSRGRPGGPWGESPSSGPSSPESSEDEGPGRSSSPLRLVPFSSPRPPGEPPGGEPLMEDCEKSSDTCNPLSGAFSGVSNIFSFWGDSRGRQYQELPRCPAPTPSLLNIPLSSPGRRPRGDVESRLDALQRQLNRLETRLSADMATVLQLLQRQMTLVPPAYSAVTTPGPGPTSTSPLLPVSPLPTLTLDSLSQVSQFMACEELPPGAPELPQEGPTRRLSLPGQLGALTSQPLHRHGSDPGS

| Compound | inhibition at 10 µM (hERG channel) [%] | EC50 ([1]; HepG2, human HMOX1, as listed in Table 5, read-out: HMOX1 EC50 h) [nM] | EC50 ([1]; human HMOX1 protein level in HepG2 lysate, * = average of 2 or more EC50 determinations, NA = Not Active, read-out: EC50) [nM] | concentration at 1 h ([2]; 1 hr) [ng/mL] | concentration at 4 h ([2]; 4 hr) [ng/mL] | concentration at 3 h ([3]; 3 h, read-out: Liver Conc uM (3 h)) [µM] | concentration at 6 h ([3]; 6 h, read-out: Liver Conc uM (6 h)) [µM] | FTH1 expression fold increase (in words) (FTH1) |
| --- | --- | --- | --- | --- | --- | --- | --- | --- |
| Cn1c(Nc2nc3ccc(OC(F)(F)F)cc3s2)nc2cc(C(=O)NCCOCCO)ccc21 [Comparator 1, 1-methyl-2-(6-trifluoromethoxy-benzothiazol-2-ylamino)-1H-benzoimidazole-5-carboxylic acid [2-(2-hydroxy-ethoxy)-ethyl]-amide, reference compound] | 66 | 900 | 900 | 2070 ± 318 | 288 ± 124 | 12.2 | 1.3 | – |
| COC(=O)/C=C/C(=O)OC [DMF, dimethyl fumarate, reference compound] | – | – | – | – | – | – | – | comparable fold increases |
